{"source": "patent US12059478B2", "about": "“Gene therapy” (Ospedale San Raffaele S.r.l., priority 2016, dated 2024)", "molecules": {"B1": {"name": "GSE56: dominant negative form of p53 (SEQ ID NO: 6), over-expressed from a LV (protein, listed as Homo sapiens)", "chain": "CPGRDRRTEEENFRKKEEHCPELPPGSAKRALPTSTSSSPQQKKKPLDGEYFTLKIRGRERFEMFRELNEALELKDARAAEESGDSRAHSSYPK"}}, "key": {"[1]": {"target": "ATM kinase (Homo sapiens, UniProt Q13315)", "sequence (Q13315 whole entry)": "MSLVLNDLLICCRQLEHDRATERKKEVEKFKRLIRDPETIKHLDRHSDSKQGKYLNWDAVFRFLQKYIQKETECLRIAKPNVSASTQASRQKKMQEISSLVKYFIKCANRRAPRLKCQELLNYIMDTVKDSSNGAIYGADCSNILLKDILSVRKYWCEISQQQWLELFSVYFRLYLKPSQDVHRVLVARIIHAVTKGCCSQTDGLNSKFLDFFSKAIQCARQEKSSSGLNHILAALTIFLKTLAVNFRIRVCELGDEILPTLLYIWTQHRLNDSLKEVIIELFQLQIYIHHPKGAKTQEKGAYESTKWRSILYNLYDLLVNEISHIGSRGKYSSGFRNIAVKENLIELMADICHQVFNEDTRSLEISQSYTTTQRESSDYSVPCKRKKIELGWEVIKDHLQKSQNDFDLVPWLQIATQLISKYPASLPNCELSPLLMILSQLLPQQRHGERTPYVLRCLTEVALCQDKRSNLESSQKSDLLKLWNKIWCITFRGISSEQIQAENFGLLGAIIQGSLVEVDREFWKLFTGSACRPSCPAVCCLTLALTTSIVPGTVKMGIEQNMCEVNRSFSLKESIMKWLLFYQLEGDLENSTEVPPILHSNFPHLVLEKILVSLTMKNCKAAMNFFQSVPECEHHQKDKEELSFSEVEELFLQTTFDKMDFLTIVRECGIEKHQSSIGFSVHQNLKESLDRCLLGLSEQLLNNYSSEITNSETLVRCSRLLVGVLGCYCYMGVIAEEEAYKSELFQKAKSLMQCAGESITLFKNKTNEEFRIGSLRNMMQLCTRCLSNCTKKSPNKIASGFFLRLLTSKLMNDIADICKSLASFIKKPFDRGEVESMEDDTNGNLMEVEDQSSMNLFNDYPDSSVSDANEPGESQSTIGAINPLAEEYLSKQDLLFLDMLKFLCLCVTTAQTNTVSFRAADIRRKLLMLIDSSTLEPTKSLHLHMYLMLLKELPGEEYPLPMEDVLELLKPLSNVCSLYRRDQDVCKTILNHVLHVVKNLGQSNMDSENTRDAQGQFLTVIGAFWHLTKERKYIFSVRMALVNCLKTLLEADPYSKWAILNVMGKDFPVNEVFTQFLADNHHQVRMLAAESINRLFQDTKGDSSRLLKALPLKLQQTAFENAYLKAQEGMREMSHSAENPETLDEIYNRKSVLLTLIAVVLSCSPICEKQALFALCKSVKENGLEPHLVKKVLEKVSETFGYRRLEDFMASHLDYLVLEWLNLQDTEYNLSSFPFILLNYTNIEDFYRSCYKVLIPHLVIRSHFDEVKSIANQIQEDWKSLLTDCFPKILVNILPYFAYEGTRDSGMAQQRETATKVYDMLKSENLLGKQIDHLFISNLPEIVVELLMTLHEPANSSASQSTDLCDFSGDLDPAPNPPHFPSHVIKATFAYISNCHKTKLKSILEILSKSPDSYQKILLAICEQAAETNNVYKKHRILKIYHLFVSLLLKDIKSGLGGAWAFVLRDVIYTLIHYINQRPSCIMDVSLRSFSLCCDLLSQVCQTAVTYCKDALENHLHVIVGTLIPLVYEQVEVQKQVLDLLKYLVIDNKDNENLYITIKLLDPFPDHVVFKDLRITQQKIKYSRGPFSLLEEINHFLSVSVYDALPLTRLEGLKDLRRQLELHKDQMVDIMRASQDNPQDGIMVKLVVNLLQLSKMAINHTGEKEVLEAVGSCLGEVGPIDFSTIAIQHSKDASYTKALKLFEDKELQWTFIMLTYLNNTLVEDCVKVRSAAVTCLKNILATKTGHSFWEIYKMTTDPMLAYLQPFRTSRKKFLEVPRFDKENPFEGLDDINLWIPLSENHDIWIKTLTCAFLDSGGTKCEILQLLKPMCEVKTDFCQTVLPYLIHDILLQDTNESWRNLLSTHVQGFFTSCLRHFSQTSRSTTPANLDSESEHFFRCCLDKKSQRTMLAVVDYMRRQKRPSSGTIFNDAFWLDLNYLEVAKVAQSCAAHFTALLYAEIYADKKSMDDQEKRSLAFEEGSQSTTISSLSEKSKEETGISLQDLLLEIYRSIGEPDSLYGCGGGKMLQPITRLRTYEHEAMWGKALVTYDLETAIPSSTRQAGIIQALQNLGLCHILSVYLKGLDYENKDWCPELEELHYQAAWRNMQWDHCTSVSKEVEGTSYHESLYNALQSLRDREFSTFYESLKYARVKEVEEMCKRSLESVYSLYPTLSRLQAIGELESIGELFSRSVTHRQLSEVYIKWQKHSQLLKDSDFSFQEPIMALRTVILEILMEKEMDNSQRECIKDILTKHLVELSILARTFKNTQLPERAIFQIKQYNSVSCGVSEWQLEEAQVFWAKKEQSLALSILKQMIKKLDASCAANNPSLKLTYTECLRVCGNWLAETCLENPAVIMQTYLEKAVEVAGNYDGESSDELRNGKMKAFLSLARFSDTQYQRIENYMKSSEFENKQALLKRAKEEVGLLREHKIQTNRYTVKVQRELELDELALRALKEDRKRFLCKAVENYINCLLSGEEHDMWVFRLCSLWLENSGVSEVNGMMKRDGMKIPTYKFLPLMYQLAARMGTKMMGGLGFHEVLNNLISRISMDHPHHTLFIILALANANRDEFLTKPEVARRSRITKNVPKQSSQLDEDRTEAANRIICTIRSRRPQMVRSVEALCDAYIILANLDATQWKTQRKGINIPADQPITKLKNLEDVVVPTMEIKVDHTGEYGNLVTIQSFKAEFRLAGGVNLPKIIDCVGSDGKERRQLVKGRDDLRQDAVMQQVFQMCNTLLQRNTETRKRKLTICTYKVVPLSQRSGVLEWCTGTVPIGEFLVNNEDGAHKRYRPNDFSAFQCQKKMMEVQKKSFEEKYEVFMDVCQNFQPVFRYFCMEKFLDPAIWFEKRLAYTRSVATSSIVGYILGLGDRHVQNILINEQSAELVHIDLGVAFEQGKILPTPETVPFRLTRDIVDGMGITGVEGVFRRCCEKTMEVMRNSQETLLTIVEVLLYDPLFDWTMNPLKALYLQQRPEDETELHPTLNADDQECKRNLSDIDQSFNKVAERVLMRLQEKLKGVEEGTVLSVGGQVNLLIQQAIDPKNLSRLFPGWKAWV", "conditions": "cited from earlier work"}, "[2]": {"target": "ATR (Homo sapiens, UniProt Q13535, F134E)", "conditions": "cited from earlier work"}, "[3]": {"target": "T1, ATR (Mus musculus, UniProt Q9JKK8)", "T1 construct": "endogenous in cells; host or cells: 3T3TopBP1-ER cells", "conditions": "3T3TopBP1-ER cells; cited from earlier work"}, "[4]": {"conditions": "DMSO, ethanol; cited from earlier work"}, "[5]": {"system": "human CB-CD34+ cells", "experiment": "Cell proliferation dye assay", "assay_type": "cell-based", "conditions": "LV MOI 100, 2 days"}, "[6]": {"system": "human CD45+ cells in the peripheral blood", "experiment": "Transplantation of transduced human HSPC in NSG mice (engraftment)", "conditions": "transient inhibition during ex vivo transduction"}, "[7]": {"system": "p53 signalling (p21 mRNA) in human CD34+ HSPC", "experiment": "p21 mRNA induction (p53 signalling) after vector transduction, Taqman", "assay_type": "cell-based", "conditions": "for LV-induced p21 mRNA in presence of the inhibitor: CB-CD34+, LV MOI 100, inhibitor 10 μM, 48 h", "from_the_text": "Human CD34+ hematopoietic stem and progenitor cells (HSPC) and CD4+ T cells were isolated through magnetic bead selection according to the manufacturer's instructions (Milteny) from umbilical cord blood (CB) collected upon informed consent from healthy volunteers according to the Institutional Ethical Committee approved protocol (TIGET01). Otherwise, CB and bone marrow (BM)-derived CD34+ were directly purchased from Lonza. Cells were purified and cultured as described in Petrillo et al. (Petrillo, C. et al. (2015) Molecular Therapy 23: 352-362). K562 and Hela cell lines were plated in complete Iscove's modified Dulbecco's medium (Euroclone). HL-60 cells were grown and transduced in complete RPMI. HCT-116 cells were grown and transduced in complete Dulbecco's Modified Eagle Medium (DMEM). Murine Lin− cells were isolated through magnetic bead selection according to the manufacturer's instructions (Miltenyi) from bone marrow of euthanised C57/BL6 mice. For the clinical standard double-hit transduction protocol, cells were washed 16 h after the first vector exposure, left to recover in cytokine-supplemented medium for 10 h and re-exposed to the second hit of vector for another 16 h before transplantation. All animal procedures were performed according to protocols approved by the Animal Care and Use Committee of the Ospedale San Raffaele (IACUC 611) and according to Italian law. All cells were transduced at the indicated multiplicity of infection (MOI) as calculated by titration of vector stocks on 293T cells for Lentiviral and Retroviral vectors. Transductions with the AAV6 vectors were performed at an MOI of 10000 as calculated by titration of the vector preparation expressed in vector genome per mL (vg/mL). All the transductions were performed at 1×10^6 cells/mL concentration. In the experiment with anti-retroviral inhibitors, the drugs were added together with the vector. Raltegravir and 3TC were used at 10 μM, and AZT at 25 μM. In the ATM inhibition experiment, single hit of the ATM inhibitor KU55933 (Selleck Chemicals) was added to the cells 2 hours before the transduction at 10 μM concentration. All cells were maintained in a 5% CO2 humidified atmosphere at 37° C.\nTotal RNA was extracted with the RNeasy Plus Micro kit or RNeasy Micro Kit (Qiagen) and Reverse transcription was performed using SuperScriptVILO cDNA Synthesis Kit (ThermoFisher Scientific) according to the manufacturers' instructions. Gene expression analysis was performed by Taqman probe (Thermo Fisher, Table 6) as described in Petrillo et al. (Petrillo, C. et al. (2015) Molecular Therapy 23: 352-362), human HPRT1 or murine Hprt were used to normalise the total quantity of human or mouse cDNA input respectively."}, "[8]": {"system": "mPB CD34+ cells", "experiment": "Two-hit transduction protocol in mPB CD34+ cells with clinical-grade LV (apoptosis, CFC, cell counts, p21)", "assay_type": "cell-based, human", "conditions": "two hits MOI 100 clinical-grade LV, 10 μM", "from_the_text": "(§1) Human CD34+ hematopoietic stem and progenitor cells (HSPC) and CD4+ T cells were isolated through magnetic bead selection according to the manufacturer's instructions (Milteny) from umbilical cord blood (CB) collected upon informed consent from healthy volunteers according to the Institutional Ethical Committee approved protocol (TIGET01). Otherwise, CB and bone marrow (BM)-derived CD34+ were directly purchased from Lonza. Cells were purified and cultured as described in Petrillo et al. (Petrillo, C. et al. (2015) Molecular Therapy 23: 352-362). K562 and Hela cell lines were plated in complete Iscove's modified Dulbecco's medium (Euroclone). […] All cells were transduced at the indicated multiplicity of infection (MOI) as calculated by titration of vector stocks on 293T cells for Lentiviral and Retroviral vectors. Transductions with the AAV6 vectors were performed at an MOI of 10000 as calculated by titration of the vector preparation expressed in vector genome per mL (vg/mL). […]\nCFC assay cells were performed as described in Petrillo et al and Gentner et al. (Petrillo, C. et al. (2015) Molecular Therapy 23: 352-362; Gentner, B. et al. (2010) Science Translational Medicine 2: 58ra84). After ten days, colonies were identified as erythroid or myeloid by morphological criteria, counted, plucked and pooled into sets of three to obtain DNA for quantification of vector content. […]"}, "[9]": {"system": "human CD34+ HSPC", "experiment": "Annexin V apoptosis assay after transduction", "assay_type": "cell-based", "from_the_text": "as §1, with “(Euroclone). HL-60 cells were grown and transduced in complete RPMI. HCT-116 cells were grown and transduced in complete Dulbecco's Modified Eagle Medium (DMEM). Murine Lin− cells were isolated through magnetic bead selection according to the manufacturer's instructions (Miltenyi) from bone marrow of euthanised C57/BL6 mice. For the clinical standard double-hit transduction protocol, cells were washed 16 h after the first vector exposure, left to recover in cytokine-supplemented medium for 10 h and re-exposed to the second hit of vector for another 16 h before transplantation.” for “(Euroclone).”\n(§2) Human HSPC fluorescence associated cell sorting was performed as described in Petrillo et al. (Petrillo, C. et al. (2015) Molecular Therapy 23: 352-362). All cytometric analyses were performed using the FACS […] instrument and LSRFortessa instruments (BD Biosciences, San Jose, CA) and analysed with the FACS Express software (De Novo Software, Glendale, CA). GFP expression in transduced cells was measured 5-7 days post-transduction. […]"}, "[10]": {"system": "Interferon stimulated genes (IRF7, OAS1, ISG15) in human CB-CD34+", "experiment": "Interferon stimulated gene mRNA induction", "assay_type": "cell-based", "conditions": "RV MOI 100, 48 h, Raltegravir and KU55933 10 μM, AZT 25 μM", "from_the_text": "as §1, with “(Euroclone). HL-60 cells were grown and transduced in complete RPMI. HCT-116 cells were grown and transduced in complete Dulbecco's Modified Eagle Medium (DMEM). Murine Lin− cells were isolated through magnetic bead selection according to the manufacturer's instructions (Miltenyi) from bone marrow of euthanised C57/BL6 mice.” for “(Euroclone).”"}, "[11]": {"system": "human CB-CD34+ cells", "experiment": "Transduction efficiency (GFP expression, integrated vector copy number)", "assay_type": "cell-based", "conditions": "LV MOI 100, 10 μM, 14 days", "from_the_text": "as §1\nas §2, with “CA).” for “CA). GFP expression in transduced cells was measured 5-7 days post-transduction.”"}, "[12]": {"conditions": "CB-CD34+ exposed to AAV-6 MOI 10000, 10 μM"}}, "data": [{"molecule": "COc1cc2ncnc(-n3nc(-c4ccccn4)nc3N)c2cc1OC", "note": "[CP-466722]", "values": [{"measurement": "ATM kinase inhibition", "setting": "[1]", "value": "potent and reversible ATM kinase inhibitor"}, {"measurement": "Effect on ATR", "setting": "[2]", "value": "does not affect ATR"}]}, {"molecule": "Cn1c(=O)n(-c2ccc(C(C)(C)C#N)cc2)c2c3cc(-c4cnc5ccccc5c4)ccc3ncc21", "note": "[BEZ235, Dactolisib]", "values": [{"measurement": "IC50", "setting": "[3]", "value": "~21", "unit": "nM"}]}, {"molecule": "O=c1cc(-c2cccc3c2Sc2ccccc2S3)oc(N2CCOCC2)c1", "note": "[KU-55933]", "values": [{"measurement": "Solubility", "setting": "[4]", "value": "soluble in DMSO and ethanol"}, {"measurement": "Proliferation delay of LV-transduced HSPC under ATM inhibition", "setting": "[5]", "value": "did not affect"}, {"measurement": "Improvement of LV-exposed HSPC engraftment", "setting": "[6]", "value": "around 25%"}, {"measurement": "AAV-6-induced p21 mRNA under ATM inhibition", "setting": "[7]; [12]", "value": "rescued"}, {"measurement": "LV-induced p21 mRNA in presence of the inhibitor", "setting": "[7]", "value": "significantly reduced"}, {"measurement": "Impact of ATM inhibition on apoptosis, colony output, cell counts in culture and p21 induction", "setting": "[8]", "value": "Positive impact"}, {"measurement": "AAV-6-induced apoptosis under ATM inhibition", "setting": "[9]; [12]", "value": "rescued"}, {"measurement": "LV-induced apoptosis in presence of the inhibitor", "setting": "[9]; CB-CD34+, LV MOI 100, inhibitor 10 μM, 48 h", "value": "partially abrogated"}, {"measurement": "γRV-mediated ISG induction in presence of the inhibitor", "setting": "[10]", "value": "no impact"}]}, {"molecule": "Cc1nnc(C(=O)NC(C)(C)c2nc(C(=O)NCc3ccc(F)cc3)c(O)c(=O)n2C)o1", "note": "[Raltegravir]", "values": [{"measurement": "LV-induced p21 mRNA in presence of the inhibitor", "setting": "[7]", "value": "still occurred"}, {"measurement": "LV integration (VCN) in presence of integrase inhibitor", "setting": "[11]", "value": "efficient block"}, {"measurement": "γRV-mediated ISG induction in presence of the inhibitor", "setting": "[10]", "value": "occurred also"}]}, {"molecule": "O=C(NC(NC(=S)Nc1ccc(F)c([N+](=O)[O-])c1)C(Cl)(Cl)Cl)C(c1ccccc1)c1ccccc1", "note": "(centres unmarked) [CGK 733]", "values": [{"measurement": "IC50", "setting": "[1]", "value": "~200", "unit": "nM"}, {"measurement": "IC50", "setting": "[2]", "value": "~200", "unit": "nM"}]}, {"molecule": "B1", "values": [{"measurement": "p21 induction upon a second round of LV or AAV6 transduction", "setting": "[7]; GSE56-expressing CB-CD34+ vs control transduced", "value": "completely prevented"}, {"measurement": "p53 signalling upon DNA damage by Captothecin (CPT)", "setting": "[7]; GSE56-overexpressing HSPC", "value": "efficiently block p53 signalling"}, {"measurement": "Apoptosis upon a second round of transduction", "setting": "[9]; GSE56-expressing HSPC, 48 h after second hit", "value": "reduced apoptosis"}]}]}
